Experimental data as given in US20080317807A1, “STRONTIUM FORTIFIED CALCIUM NANO-AND MICROPARTICLE COMPOSITIONS AND METHODS OF MAKING AND USING THEREOF” (The University of Hong Kong, priority 2007, published 2008).

Legend:
[1] = tested on: osteoporotic mice model induced by parathyroid hormone; conditions: cited from earlier work
[2] = tested on: fibroblast and pre-osteoblastic enriched cell populations; conditions: cited from earlier work
[3] = tested on: rats; conditions: cited from earlier work
[4] = tested on: mature osteoblast; conditions: Strontium concentrations of 10^−3M or higher; cited from earlier work
[5] = tested on: osteoblast differentiation; assay: Osteoblast differentiation by ALP staining and ALP quantification; type: cell-based
Source text: It was also observed that the administration of strontium promoted osteoblast differentiation. This was confirmed via alkaline phosphatase (ALP) staining and ALP quantification.

SMILES	Bone resorption [1]	Increase of DNA synthesis [2]	Increase of alkaline phosphatase activities, female rats ([3]; female rats) [%]	Increase of alkaline phosphatase activities, male rats ([3]; male rats) [%]	Plasma IGF-1, males ([3]; males, after 104 weeks of treatment)	Increase of collagen and non-collagenic protein synthesis [4] [%]	Matrix mineralization of osteoprogenitors [5]	Osteoblast differentiation (ALP staining and quantification) ([5]; particularly after 14 days)
N#Cc1c(N(CC(=O)[O-])CC(=O)[O-])sc(C(=O)[O-])c1CC(=O)[O-].[Sr+2].[Sr+2] [strontium ranelate]	inhibited bone resorption	three- to four	–	–	–	–	–	–
[Sr+2] [strontium]	–	–	56	53	Significant increase	34	increased matrix mineralization	increased osteoblast differentiation
